Values of other authors as cited in patent US20260263368A1, “DOUBLE-RELEASE THREE-LAYERED BR[…] AND PREPARATION METHOD THEREOF” (TAIZHOU OVERSEAS PHARMACEUTICALS, LTD., priority 2023, published 2026).

Conditions: background statement

For CCC[C@@H]1CC(=O)N([C@@H](CC)C(N)=O)C1 [Brivaracetam, (2S)-2-[(4R)-2-oxo-4-propyltetrahydro-1H-pyrrol-1-yl]butanamide], the water solubility is listed as “good water solubility”.
